According to patent US9303005B2, “Use of dibenzofuranone derivatives to inhibit kinases” (priority 2010, dated 2016):

Tests used:
CK2 = details: prior-art value; read-out: IC50 (CK2, literature); cited from earlier work
[1] = prior art; lactam ring hydrolysis; cited from earlier work
CK2 holoenzyme = CK2 holoenzyme (Homo sapiens (Human), UniProt P68400); assay: capillary electrophoretic CK2 inhibition/activity test (E-peptide substrate); type: biochemical; details: for IC50: capillary electrophoretic test, ten minutes pre-incubation; for CK2-activity at 10 μM: residual CK2 activity at 10 μM substance, values below 4% not reliably quantifiable
Procedure: To this end, the capillary electrophoretic CK2 inhibition test using E-peptide as the substrate was carried out. […] Ten concentrations between 0.0001 μM and 10 μM were investigated for this purpose.
Kuckländer (Kuckländer and Töberich, 1982; Bollig, 2007).

LNCaP cells = assay: MTT test, viability of LNCaP cells; type: cell-based, human; details: relative to untreated cells; for viability at 75 µM / viability at 25 µM / viability at 50 µM: Homo sapiens, LNCaP
Procedure: The viability was determined with the aid of the MTT test.
A MTT test was used to determine the effect of TF on the viability of LNCaP cells. To this end, these cell lines were treated with three concentrations of TF (25 μM, 50 μM, 75 μM). The effect was determined after 24 h, 48 h and 72 h as the relative viability compared with untreated cells. […] After treating the LNCaP cells with TF, both the effects of increasing the concentration and also of prolonging the incubation time could be recorded. After 24 hours incubation with 25 μM of TF, the viability had already dropped to 45% and after the same incubation time with 50 μM of TF, it had dropped further to 30%. […] The effects after 24 h could be reinforced in each case by extending the incubation time. Thus, after 48 hours incubation with 25 μM, 50 μM and 75 μM of TF, a viability of 37%, 15% or 12% was observed. […] Thus, an incubation time of 24 h had only a small effect. […] Only at the highest concentration of 75 μM, a reduction to 45% after 48 h was recorded, and after 72 h, the viability was still 17% (FIG. 5B). […] In summary, it has been shown that the viability of LNCaP cells is reduced by both substances.

[2] = prior art; cited from earlier work
[3] = tested on: endogenous CK2 of LNCaP cells; assay: CK2 activity in lysates of treated LNCaP cells (radiometric test); type: cell-based, human; details: for endogenous CK2 activity of LNCaP cells: from 25 μM, 24 h or 48 h, relative to untreated cells
Procedure: The CK2 activity was determined using a radiometric test procedure. The relative activities of the samples were each relative to untreated cells. White bars show the CK2 activity after 24 h; grey bars show the CK2 activity after 48 h incubation with each inhibitor. For samples (A) treated with TF, double determinations were carried out (the mean value is given in each case).
LNCaP cells were incubated with TF in the same manner as in the experiments described above. After 24 h or 48 h, the CK2 activity of lysates was measured using radiometric CK2 testing. This investigation provided an indication as to whether the inhibition of TF found with the isolated enzyme could be observed in cellular systems. […] Cells were incubated for 24 h or 48 h with 25 μM, 50 μM or 75 μM of TF and then washed and lysed. The relative CK2 activity was calculated from these cell lysates. The reference was the CK2 activity of cell lysates from untreated cells incubated for corresponding periods. In order to compensate for any fluctuations in the radiometric test, in the case of TF, two samples per parameter were measured. As a qualitative control, the TBB samples were used and measured individually.
The observed reduction in CK2 activity was thus due to modulation of the CK2 enzyme activity. […] Altogether, it can be seen that TF reduces the endogenous CK2 activity in LNCaP cells. […] Proof of the inhibition of intracellular CK2 is provided by the ability of TF to permeate cells.

[4] = tested on: PARP cleavage in LNCaP cells; assay: PARP cleavage in LNCaP cells (Western Blot); type: cell-based, human
Procedure: The controls were cells which had only been treated with DMSO (0 μM). After SDS-PAGE and Western Blotting, complete PARP (115 kDa) and the 89 kDa fragment obtained after caspase cleavage with the aid of an anti-PARP antibody were labelled.
Next, we investigated whether the TF-mediated reduction in cell viability could be related to apoptotic events. To this end, cleavage of poly(ADP-ribose)-polymerase (PARP) in cells was assayed. Caspase 3 cleaves the 115 kDa PARP into two stable fragments: the 24 kDa DNA-binding N-terminal domain and the 89 kDa C-terminal fragment. This specific proteolysis of PARP characterizes the irreversible point of initiation apoptosis and can be assayed in a Western Blot of cell lysates with a specific PARP antibody. […] This effect was observed both after an incubation time of 24 h and also, more strongly, after 48 h.

CK2α (CK2a) = CK2α (CK2a) (Homo sapiens (Human), UniProt P68400); assay: Reaction Biology radiometric kinase selectivity test; type: biochemical; details: 10 μM TF, 10 μM ATP; read-out: residual activity CK2α
[5] = tested on: 63 isolated human protein kinases; assay: Selectivity profile over 63 isolated human protein kinases; type: biochemical; details: 10 μM TF, 10 μM ATP
Procedure: (§1) The listed PKs were incubated with 10 μM TF and 10 μM ATP. Next, the relative percentage kinase activity was determined (mean value from n=2). 100% activity was defined as the activity of the respective kinase in the absence of TF. The PK grouping was in accordance with Manning et al. (2002).
After the inhibitory potency of TF had been able to be established in LNCaP cells, the possibility that TF could be a selective CK2 inhibitor had to be investigated. To this end, the inhibiting effect of TF on 63 isolated human protein kinases (PK) was investigated by the firm “Reaction Biology” (Malvern, Pa., USA). These included representatives of PKs from all main groups of the human kinome (Manning et al., 2002). The results of this investigation are shown in FIG. 8, classified into the main human PK groups. In this series of tests, all of the PKs were each incubated with 10 μM of ATP and 10 μM of TF. In a subsequent radiometric test, the respective kinase activity with respect to a sample without TF was determined. Since the KM values of PK with respect to ATP occasionally differed substantially (Knight and Shokat, 2005), the results only allow a semi-quantitative comparison of inhibition by TF to be made. […]

KDR/VEGFR2 = KDR/VEGFR2 (Homo sapiens (Human), UniProt P35968); assay: Reaction Biology radiometric kinase selectivity test; type: biochemical; details: 10 μM TF, 10 μM ATP, relative kinase activity
Procedure: as §1
(§2) After the inhibitory potency of TF had been able to be established in LNCaP cells, the possibility that TF could be a selective CK2 inhibitor had to be investigated. To this end, the inhibiting effect of TF on 63 isolated human protein kinases (PK) was investigated by the firm “Reaction Biology” (Malvern, Pa., USA). These included representatives of PKs from all main groups of the human kinome (Manning et al., 2002). The results of this investigation are shown in FIG. 8, classified into the main human PK groups. In this series of tests, all of the PKs were each incubated with 10 μM of ATP and 10 μM of TF. In a subsequent radiometric test, the respective kinase activity with respect to a sample without TF was determined. Since the KM values of PK with respect to ATP occasionally differed substantially (Knight and Shokat, 2005), the results only allow a semi-quantitative comparison of inhibition by TF to be made. […] However, the different test parameters, such as substrate and ATP concentration, buffer, etc., must be taken into account and so a direct comparison of the inhibition data as a percentage is not possible at this point. The seven PKs which were inhibited the most strongly (>70%) are listed separately in Table 3.

FLT4/VEGFR3 = FLT4/VEGFR3 (Homo sapiens (Human), UniProt P35916); assay: as above; type: biochemical; details: 10 μM TF, 10 μM ATP, relative kinase activity
Procedure: as §1, §2

MAPK14 = MAPK14 (Homo sapiens (Human), UniProt Q16539); assay: as above; type: biochemical; details: 10 μM TF, 10 μM ATP
Procedure: as §1, §2

LBK1 = LBK1 (Homo sapiens (Human), UniProt Q15831); assay: as above; type: biochemical; details: 10 μM TF, 10 μM ATP
Procedure: as §1, §2

PAK4 = PAK4 (Homo sapiens (Human), UniProt O96013); assay: as above; type: biochemical; details: 10 μM TF, 10 μM ATP
Procedure: as §1, §2

PIM1 = PIM1 (Homo sapiens (Human), UniProt P11309); assay: as above; type: biochemical; details: 10 μM TF, 10 μM ATP, relative kinase activity
Procedure: as §1, §2

SGK1 (d1-59, S422D) = SGK1 (d1-59, S422D) (Homo sapiens (Human), UniProt O00141, S422D); assay: as above; type: biochemical; details: 10 μM TF, 10 μM ATP, relative kinase activity
Procedure: as §1, §2

IRAK4 = IRAK4 (Homo sapiens (Human), UniProt Q9NWZ3); assay: as above; type: biochemical; details: 10 μM TF, 10 μM ATP
Procedure: as §1, §2

LCK = LCK (Homo sapiens (Human), UniProt P06239); assay: as above; type: biochemical; details: 10 μM TF, 10 μM ATP, relative kinase activity
Procedure: as §1, §2

PKD2/PRKD2 = PKD2/PRKD2 (Homo sapiens (Human), UniProt Q9BZL6); assay: as above; type: biochemical; details: 10 μM TF, 10 μM ATP, relative kinase activity
Procedure: as §1, §2

CK2α′ (CK2a2) = CK2α′ (CK2a2) (Homo sapiens (Human), UniProt P19784); assay: as above; type: biochemical; details: 10 μM TF, 10 μM ATP; read-out: residual activity CK2α′
Procedure: as §1, §2

Aurora A = Aurora A (Homo sapiens (Human), UniProt O14965); assay: as above; type: biochemical; details: 10 μM TF, 10 μM ATP, relative kinase activity
Procedure: as §1, §2

Sequence of CK2 holoenzyme (P68400 whole entry): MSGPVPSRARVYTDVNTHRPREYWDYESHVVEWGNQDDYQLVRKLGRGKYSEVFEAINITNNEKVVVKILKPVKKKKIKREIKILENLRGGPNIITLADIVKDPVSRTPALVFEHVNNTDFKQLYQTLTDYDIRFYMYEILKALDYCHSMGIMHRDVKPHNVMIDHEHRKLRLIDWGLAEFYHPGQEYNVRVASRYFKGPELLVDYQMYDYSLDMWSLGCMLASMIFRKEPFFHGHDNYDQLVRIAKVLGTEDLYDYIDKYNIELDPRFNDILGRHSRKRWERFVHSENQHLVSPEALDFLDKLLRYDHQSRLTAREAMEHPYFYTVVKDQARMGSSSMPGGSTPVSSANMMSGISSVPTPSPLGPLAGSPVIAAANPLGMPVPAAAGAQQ
Sequence of CK2 holoenzyme (P67870 whole entry partner): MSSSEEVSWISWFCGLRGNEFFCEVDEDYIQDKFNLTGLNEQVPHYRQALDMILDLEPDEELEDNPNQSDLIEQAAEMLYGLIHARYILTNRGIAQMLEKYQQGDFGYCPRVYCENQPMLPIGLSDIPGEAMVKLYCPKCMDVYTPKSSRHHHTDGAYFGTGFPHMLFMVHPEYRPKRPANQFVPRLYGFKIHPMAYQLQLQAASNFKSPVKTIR
Sequence of SGK1 (d1-59, S422D) (O00141 60-431 S422D): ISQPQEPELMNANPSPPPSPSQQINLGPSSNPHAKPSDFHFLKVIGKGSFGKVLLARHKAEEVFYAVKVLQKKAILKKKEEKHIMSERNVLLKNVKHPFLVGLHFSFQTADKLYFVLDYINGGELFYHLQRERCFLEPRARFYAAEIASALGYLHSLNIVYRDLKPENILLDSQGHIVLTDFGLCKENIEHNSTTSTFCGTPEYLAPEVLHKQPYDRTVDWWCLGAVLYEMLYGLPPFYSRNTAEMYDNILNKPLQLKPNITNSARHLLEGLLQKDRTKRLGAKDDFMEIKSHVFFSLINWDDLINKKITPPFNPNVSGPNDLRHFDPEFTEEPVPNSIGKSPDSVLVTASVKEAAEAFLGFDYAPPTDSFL
Sequence of CK2α′ (CK2a2) (P19784 whole entry): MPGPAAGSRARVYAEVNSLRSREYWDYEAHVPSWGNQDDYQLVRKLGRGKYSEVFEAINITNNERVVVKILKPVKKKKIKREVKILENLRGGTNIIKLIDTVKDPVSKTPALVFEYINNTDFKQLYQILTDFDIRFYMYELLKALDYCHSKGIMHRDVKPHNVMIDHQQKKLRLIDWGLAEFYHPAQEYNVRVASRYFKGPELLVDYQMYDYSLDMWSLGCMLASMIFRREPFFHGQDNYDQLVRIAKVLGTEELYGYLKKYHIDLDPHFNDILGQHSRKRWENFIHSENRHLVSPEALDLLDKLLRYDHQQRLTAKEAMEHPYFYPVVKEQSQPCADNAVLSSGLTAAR
Sequence of PKD2/PRKD2 (Q9BZL6 whole entry): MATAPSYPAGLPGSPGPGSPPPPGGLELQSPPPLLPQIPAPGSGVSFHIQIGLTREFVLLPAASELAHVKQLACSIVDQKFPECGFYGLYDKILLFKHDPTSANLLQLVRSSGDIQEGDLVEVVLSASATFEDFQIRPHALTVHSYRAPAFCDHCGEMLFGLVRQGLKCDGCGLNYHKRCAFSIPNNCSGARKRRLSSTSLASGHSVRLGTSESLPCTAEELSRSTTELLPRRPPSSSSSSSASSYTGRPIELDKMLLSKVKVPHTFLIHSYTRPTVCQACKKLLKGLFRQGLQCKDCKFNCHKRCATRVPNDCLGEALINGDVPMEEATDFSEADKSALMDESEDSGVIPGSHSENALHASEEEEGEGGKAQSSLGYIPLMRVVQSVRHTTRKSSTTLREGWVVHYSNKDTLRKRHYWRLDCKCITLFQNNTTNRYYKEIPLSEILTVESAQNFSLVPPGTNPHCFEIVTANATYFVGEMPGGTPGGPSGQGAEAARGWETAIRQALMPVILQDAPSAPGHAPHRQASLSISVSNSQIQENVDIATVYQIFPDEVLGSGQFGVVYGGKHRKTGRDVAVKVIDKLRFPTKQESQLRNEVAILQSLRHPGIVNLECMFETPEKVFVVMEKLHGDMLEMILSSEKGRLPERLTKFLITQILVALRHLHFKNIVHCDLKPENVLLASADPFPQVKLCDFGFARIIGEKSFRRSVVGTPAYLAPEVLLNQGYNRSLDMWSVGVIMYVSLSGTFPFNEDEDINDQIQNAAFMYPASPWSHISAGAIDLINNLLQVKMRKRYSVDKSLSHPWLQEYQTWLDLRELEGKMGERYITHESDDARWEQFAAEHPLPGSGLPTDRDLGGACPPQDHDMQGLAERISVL
Sequence of LCK (P06239 whole entry): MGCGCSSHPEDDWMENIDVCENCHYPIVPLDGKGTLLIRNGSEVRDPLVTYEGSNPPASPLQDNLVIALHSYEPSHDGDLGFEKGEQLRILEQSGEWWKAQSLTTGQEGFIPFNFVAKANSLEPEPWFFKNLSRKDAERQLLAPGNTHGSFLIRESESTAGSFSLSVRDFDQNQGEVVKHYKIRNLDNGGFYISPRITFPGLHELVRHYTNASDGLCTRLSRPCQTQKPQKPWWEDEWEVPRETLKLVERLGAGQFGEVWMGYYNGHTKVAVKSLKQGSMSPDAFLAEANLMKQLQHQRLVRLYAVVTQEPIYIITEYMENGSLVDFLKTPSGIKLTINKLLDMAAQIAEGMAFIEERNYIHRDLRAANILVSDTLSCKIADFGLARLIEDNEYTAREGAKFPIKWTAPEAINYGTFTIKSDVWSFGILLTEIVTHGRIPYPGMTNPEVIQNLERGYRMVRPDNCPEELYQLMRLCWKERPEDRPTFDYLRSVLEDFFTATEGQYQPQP
Sequence of FLT4/VEGFR3 (P35916 25-1363): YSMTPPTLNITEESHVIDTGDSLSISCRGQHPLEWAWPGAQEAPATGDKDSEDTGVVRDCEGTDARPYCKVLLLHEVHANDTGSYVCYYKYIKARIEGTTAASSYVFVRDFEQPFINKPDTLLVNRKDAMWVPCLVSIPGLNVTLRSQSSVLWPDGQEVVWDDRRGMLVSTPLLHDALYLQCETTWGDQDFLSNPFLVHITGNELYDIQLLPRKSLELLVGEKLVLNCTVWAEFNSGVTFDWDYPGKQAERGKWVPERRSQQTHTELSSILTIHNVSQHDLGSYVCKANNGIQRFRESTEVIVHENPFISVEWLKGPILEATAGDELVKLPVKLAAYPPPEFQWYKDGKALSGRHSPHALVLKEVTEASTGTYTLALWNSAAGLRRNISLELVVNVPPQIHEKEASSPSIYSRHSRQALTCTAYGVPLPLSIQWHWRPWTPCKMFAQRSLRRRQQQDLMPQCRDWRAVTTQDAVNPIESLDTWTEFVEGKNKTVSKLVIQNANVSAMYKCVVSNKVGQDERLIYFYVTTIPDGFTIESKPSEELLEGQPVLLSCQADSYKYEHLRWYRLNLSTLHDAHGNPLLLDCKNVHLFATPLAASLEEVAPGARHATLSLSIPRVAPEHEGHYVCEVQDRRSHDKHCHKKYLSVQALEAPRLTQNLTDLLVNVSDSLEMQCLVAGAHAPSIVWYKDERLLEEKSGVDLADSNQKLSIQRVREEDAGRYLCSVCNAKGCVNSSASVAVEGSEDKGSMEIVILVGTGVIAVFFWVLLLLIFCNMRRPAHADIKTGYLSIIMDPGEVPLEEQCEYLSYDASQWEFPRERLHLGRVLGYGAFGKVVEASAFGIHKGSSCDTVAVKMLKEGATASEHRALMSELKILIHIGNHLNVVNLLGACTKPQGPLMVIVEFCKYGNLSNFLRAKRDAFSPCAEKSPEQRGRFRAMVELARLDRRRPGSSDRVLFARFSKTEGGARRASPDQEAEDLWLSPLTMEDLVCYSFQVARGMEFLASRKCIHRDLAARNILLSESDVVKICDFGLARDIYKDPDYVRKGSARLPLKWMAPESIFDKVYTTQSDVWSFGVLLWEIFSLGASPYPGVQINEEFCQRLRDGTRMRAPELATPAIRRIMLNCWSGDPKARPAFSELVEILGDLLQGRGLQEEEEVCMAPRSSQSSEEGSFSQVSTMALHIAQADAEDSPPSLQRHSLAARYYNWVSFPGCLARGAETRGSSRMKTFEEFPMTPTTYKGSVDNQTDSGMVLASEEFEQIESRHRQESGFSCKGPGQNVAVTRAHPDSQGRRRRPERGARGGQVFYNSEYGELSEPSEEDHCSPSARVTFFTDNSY
Sequence of PAK4 (O96013 whole entry): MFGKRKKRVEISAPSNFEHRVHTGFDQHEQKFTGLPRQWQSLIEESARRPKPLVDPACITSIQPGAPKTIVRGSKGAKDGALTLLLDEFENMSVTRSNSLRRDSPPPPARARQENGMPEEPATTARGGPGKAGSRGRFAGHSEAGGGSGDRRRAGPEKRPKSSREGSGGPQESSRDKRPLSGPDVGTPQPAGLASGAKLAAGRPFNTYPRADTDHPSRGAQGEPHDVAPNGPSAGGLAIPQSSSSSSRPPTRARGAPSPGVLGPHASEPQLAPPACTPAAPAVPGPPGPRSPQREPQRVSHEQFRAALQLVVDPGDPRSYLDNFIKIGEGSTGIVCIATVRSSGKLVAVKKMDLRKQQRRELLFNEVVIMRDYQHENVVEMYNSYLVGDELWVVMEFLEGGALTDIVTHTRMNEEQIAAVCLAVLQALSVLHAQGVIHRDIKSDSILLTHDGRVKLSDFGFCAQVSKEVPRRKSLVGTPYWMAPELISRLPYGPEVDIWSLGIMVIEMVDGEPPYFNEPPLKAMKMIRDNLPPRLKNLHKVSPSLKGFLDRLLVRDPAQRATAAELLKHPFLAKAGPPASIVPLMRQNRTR
Sequence of PIM1 (P11309 whole entry): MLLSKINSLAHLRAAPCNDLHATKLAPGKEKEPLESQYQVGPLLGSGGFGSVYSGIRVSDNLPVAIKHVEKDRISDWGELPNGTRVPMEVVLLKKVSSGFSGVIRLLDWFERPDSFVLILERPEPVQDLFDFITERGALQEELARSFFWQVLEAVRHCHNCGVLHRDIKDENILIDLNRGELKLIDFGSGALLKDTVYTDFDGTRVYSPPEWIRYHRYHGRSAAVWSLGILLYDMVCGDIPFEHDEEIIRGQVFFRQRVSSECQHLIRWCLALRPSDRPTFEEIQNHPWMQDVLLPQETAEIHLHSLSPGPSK
Sequence of CK2α (CK2a) (P68400 whole entry): as the sequence (P68400 whole entry) above

## CC1=C(Br)COc2c1ccc(O)c2Br [DBC, 3,8-dibromo-7-hydroxy-4-methyl-chromene]
CK2
  IC50: 100 nM

## C=CC1=C(C)c2cc3[n-]c(cc4nc(cc5[n-]c(cc1n2)c(C)c5C=C)C(C)=C4CCC(=O)O)c(CCC(=O)O)c3C.[Fe+2] [Haematin]
CK2
  IC50: 550 nM

## O=C(O)Cc1c2ccccc2n2c1[nH]c(=O)c1ccccc12 [IQA, (5-oxo-5,6-dihydroindolo[1,2-a]quinazolin-7-yl) acetic acid]
[1]
  stability in aqueous media: unstable in aqueous media

## O=c1c2c(O)cccc2oc2c([N+](=O)[O-])ccc(O)c12 [MNX, 1,8-dihydro-4-nitroxanthen-9-one]
CK2
  IC50: 400 nM

## CCOC(=O)c1oc2c(Cl)c(Cl)c(OC(C)=O)c(C#N)c2c1N [Ric138]
CK2 holoenzyme
  IC50: 2400 nM

## CC(C)=CC(=O)c1coc2ccc(O)cc12 [Ric149]
CK2 holoenzyme
  CK2-activity at 10 μM: 61%^

## CC(=O)Oc1c(Cl)c(Cl)c2oc(C(=O)C=C(C)C)c(N)c2c1C#N [Ric152]
CK2 holoenzyme
  IC50: 200 nM

## CCOC(=O)c1oc2ccc(OC(C)=O)c(CNC(C)=O)c2c1NC(C)=O [RicFur]
CK2 holoenzyme
  CK2-activity at 10 μM: 110%^

## Brc1c(Br)c(Br)c2[nH]nnc2c1Br [TBB, 4,5,6,7-tetrabrombenzotriazole]
LNCaP cells; 25 μM, 72 h
  viability of LNCaP cells: no effects were observed
LNCaP cells; 24 h
  viability at 75 µM: 90%
LNCaP cells; 48 h
  viability at 75 µM: 45%
LNCaP cells; 72 h
  viability at 75 µM: 17%
[2]
  solubility in water: relatively poor solubility in water
[3]; 75 μM, 24 h, called most probably a rogue result
  CK2 activity of LNCaP cell lysate: 90%
[3]
  endogenous CK2 activity of LNCaP cells: 50%
[4]; 25 μM
  bands of the 89 kDa PARP fragment: a faint band could be seen at 89 kDa
[4]; from 50 μM, 24 h and 48 h
  bands of the 89 kDa PARP fragment: almost identical results

## Cc1ccc(N/C=C2\C(=O)CCc3c2oc2c(Cl)c(Cl)c(O)cc32)cc1 [TF, (Z)-6,7-dichloro-1,4-dihydro-8-hydroxy-4-[(4-methylphenylamino)methylene]-dibenzo[b,d]furan-3(2H)-one]
LNCaP cells; 25 μM, 24 h
  viability at 25 µM: 45%
LNCaP cells; 25 μM, 48 h
  viability at 25 µM: 37%
LNCaP cells; 25 μM, 72 h
  viability at 25 µM: 14%
LNCaP cells; 24 h
  viability at 50 µM: 30%
  viability at 75 µM: 31%
LNCaP cells; 48 h
  viability at 50 µM: 15%
  viability at 75 µM: 12%
LNCaP cells; 72 h
  viability at 50 µM: 5%
  viability at 75 µM: 3%
CK2α (CK2a)
  remaining activity at 10 µM: 24%
CK2 holoenzyme; IC50 at 8 different ATP concentrations
  mode of inhibition: ATP competitive inhibitor
CK2 holoenzyme; Y-axis intersection of IC50 vs ATP concentration (8 ATP concentrations), read-out: inhibition constant Ki
  Ki: 14.7 nM
CK2 holoenzyme
  IC50: 30 nM
[5]
  number of the 63 PK inhibited (reduction in activity of >50%) in addition to CK2α and CK2α′: twelve
[3]
  endogenous CK2 activity of LNCaP cells: 50%
[4]; from 50 μM, 24 h and 48 h
  bands of the 89 kDa PARP fragment: increased in intensity in a concentration-dependent manner
KDR/VEGFR2
  Activity KDR/VEGFR2: 13.05%
FLT4/VEGFR3
  Activity FLT4/VEGFR3: 19.68%
MAPK14
  kinase activity MAPK14: clear increase in activity
LBK1
  kinase activity LBK1: clear increase in activity
PAK4
  kinase activity PAK4: clear increase in activity
PIM1
  Activity PIM1: 19.90%
SGK1 (d1-59, S422D)
  Activity SGK1 (d1-59, S422D): 14.16%
IRAK4
  kinase activity IRAK4: clear increase in activity
LCK
  Activity LCK: 29.20%
PKD2/PRKD2
  Activity PKD2/PRKD2: 20.90%
CK2α′ (CK2a2)
  remaining activity at 10 µM: 35%
Aurora A
  Activity Aurora A: 11.00%

## O=c1cc(-c2ccc(O)cc2)oc2cc(O)cc(O)c12 [apigenin]
CK2
  IC50: ~1000 nM
